The source of these data is patent publication US6057441A, “Substituted tetracyclic tetrahydrofuran derivatives” (Janssen Pharmaceutica, N.V., priority 1996, dated 2000).

Where a name gives a salt, the structure may show the parent alone.

For assay [1], the target named is T1, 5-HT2A receptor (Rattus norvegicus, UniProt P14842).
T1 construct: the tissue used is the frontal cortex of the rat; from tissue; host or cells: rat frontal cortex
Description: In vitro radioligand binding affinity for 5-HT2A receptor (3H-ketanserin, frontal cortex). Particulars: test concentration of 10^-7 M, frontal cortex of the rat. The procedure:
(§1) The interaction of the compounds of formula (I) with 5-HT2A and 5-HT2C receptors was assessed in in vitro radioligand binding experiments. In general, a low concentration of a radioligand with a high binding affinity for the receptor is incubated with a sample of a tissue preparation enriched in a particular receptor (1 to 5 mg tissue) in a buffered medium (0.2 to 5 ml). During the incubation, the radioligands bind to the receptor. When equilibrium of binding is reached, the receptor bound radioactivity is separated from the non-bound radioactivity, and the receptor bound activity is counted. The interaction of the test compounds with the receptors is assessed in competition binding experiments. Various concentrations of the test compound are added to the incubating mixture containing the tissue preparation and the radioligand. Binding of the radioligand will be inhibited by the test compound in proportion to its binding affinity and its concentration. The radioligand used for 5-HT2A binding affinity is ^3 H-ketanserin and the tissue used is the frontal cortex of the rat. […] The radioligand used for 5-HT2C binding affinity is ^3 H-mesulergine and the tissue used is the choroid plexus of the pig.

Assay [2] deals with mCPP (metachlorophenylpiperazine) induced effects. Briefly: mCPP Test on Rats. Type of assay: in vivo, rat. The conditions noted are these: pre-test time T of 1 hour, 1 mg/kg mCPP intravenously 15 minutes prior to the test, Open Field Test; for ED40: Rattus norvegicus, iv, read-out: active dose (dose at which 40% of the tested rats showed suppression of the mCPP induced effects, i.e. mCPP-antagonism). The procedure:
Rats were treated with the test compound at a dose varying between 0.0025 mg/kg and 40 mg/kg body weight at a pre-test time T of 1 hour, and with 1 mg/kg mCPP (metachlorophenylpiperazine), injected intravenously, 15 minutes prior to the test. After pre-test time T elapsed, treated rats were submitted to the "Open Field Test on Rats" as described in Drug. Dev. Res. 18, 119-144 (1989), but using an infra-red light source instead of a Kleverlux® (12 V/20 W) light source. […] Compounds number 1, 2, 4 and 9 were active at a test dose of 2.5 mg/kg or less.

For assay [3], the target named is T2, 5-HT2C receptor (Sus scrofa, UniProt K7GSR7).
T2 construct: the tissue used is the choroid plexus of the pig; from tissue; host or cells: pig choroid plexus
T2 sequence (K7GSR7 1-457): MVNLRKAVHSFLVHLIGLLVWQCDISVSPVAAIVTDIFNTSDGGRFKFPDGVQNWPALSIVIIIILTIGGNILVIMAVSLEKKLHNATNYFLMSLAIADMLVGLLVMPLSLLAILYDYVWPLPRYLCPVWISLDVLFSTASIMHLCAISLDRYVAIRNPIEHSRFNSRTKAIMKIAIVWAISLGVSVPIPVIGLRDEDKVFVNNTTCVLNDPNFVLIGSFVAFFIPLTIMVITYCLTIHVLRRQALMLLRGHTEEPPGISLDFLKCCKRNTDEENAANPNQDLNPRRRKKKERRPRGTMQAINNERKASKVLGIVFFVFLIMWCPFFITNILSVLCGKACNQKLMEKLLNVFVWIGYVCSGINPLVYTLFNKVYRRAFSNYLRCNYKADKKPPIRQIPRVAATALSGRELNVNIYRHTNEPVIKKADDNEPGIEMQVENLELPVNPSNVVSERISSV
Briefly: In vitro radioligand binding affinity for 5-HT2C receptor (3H-mesulergine, choroid plexus). The conditions noted are these: test concentration of 10^-7 M, choroid plexus of the pig. On the procedure: as §1

For assay [4] the following is noted: dose of 300 mg/kg; cited from earlier work.

T1 sequence (P14842 whole entry): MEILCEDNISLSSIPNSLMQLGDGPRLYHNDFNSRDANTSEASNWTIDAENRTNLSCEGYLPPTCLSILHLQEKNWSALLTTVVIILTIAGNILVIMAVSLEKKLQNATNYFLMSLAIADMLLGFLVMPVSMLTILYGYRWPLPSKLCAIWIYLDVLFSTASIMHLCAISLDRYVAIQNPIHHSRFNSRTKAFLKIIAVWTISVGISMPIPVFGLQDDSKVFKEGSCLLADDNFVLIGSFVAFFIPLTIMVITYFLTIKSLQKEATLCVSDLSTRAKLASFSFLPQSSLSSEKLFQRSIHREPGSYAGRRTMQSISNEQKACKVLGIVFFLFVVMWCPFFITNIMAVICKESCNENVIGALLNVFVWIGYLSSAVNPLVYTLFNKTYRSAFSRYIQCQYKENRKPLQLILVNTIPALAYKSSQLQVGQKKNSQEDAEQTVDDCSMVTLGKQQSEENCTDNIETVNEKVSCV

As for `c1ccc2c(c1)Cc1ccccc1C1OC(CN3CCOCC3)CC21` (stereo not shown) [Compound 9], the inhibition at 0.1 µM in assay [1] and in assay [3] was > 40% in each case. The ED40 in assay [2] is ≤ 2.5 mg/kg.
On to `Clc1cccc(N2CCN(CC3CC4c5ccccc5Cc5ccccc5C4O3)CC2)c1` (stereo not shown) [Compound 6], for which the inhibition at 0.1 µM in assay [3] was > 40%.
`CNCC1CC2c3ccccc3Cc3ccccc3C2O1.O=C(O)C(=O)O` (racemic) [(±)-3,3a,8,12b-tetrahydro-N-methyl-2H-dibenzo[3,4:6,7]-cyclohepta[1,2-b]furan-2-methanamine oxalic acid]: the antidepressant activity result in assay [4] is “inactive”.
As for `O=C(c1ccc(F)cc1)C1CCN(CC2CC3c4ccccc4Cc4ccccc4C3O2)CC1` (stereo not shown) [Compound 8], the inhibition at 0.1 µM in assay [1] and in assay [3] was > 40% in each case.
As to `CN(C)CC1CC2c3ccccc3Oc3ccccc3C2O1` (racemic) [Compound 1, (±)-2,3,3a,12b-tetrahydro-N,N-dimethyldibenzo[bf]furo[2,3-d]oxepin-2-methanamine], in assay [2], the ED40 is ≤ 2.5 mg/kg. Also, the inhibition at 0.1 µM in assay [3] is > 40%.
With `OCCN1CCN(CC2CC3c4ccccc4Cc4ccccc4C3O2)CC1` (racemic) [Compound 3, (±)-4-[(3,3a,8,12b-tetrahydro-2H-dibenzo[3,4:6,7]cyclohepta[1,2-b]furan-2-yl)methyl]-1-piperazineethanol dihydrochloride], the inhibition at 0.1 µM in assay [1] and in assay [3] was > 40% each time.
`CN1CCN(CC2CC3c4ccccc4Cc4ccccc4C3O2)CC1` (stereo not shown) [Compound 5]: the inhibition at 0.1 µM in assay [1] and in assay [3] was > 40% each time.
As for `c1ccc(C2CCN(CC3CC4c5ccccc5Cc5ccccc5C4O3)CC2)cc1` (stereo not shown) [Compound 7], in assay [3], the inhibition at 0.1 µM was > 40%.
Consider `CN(C)CC1CC2c3ccccc3Oc3ccccc3C2O1` (stereo not shown) [Compound 2], for which the “active dose (dose at which 40% of the tested rats showed suppression of the mCPP induced effects, i.e. mCPP-antagonism)” value in assay [2] was ≤ 2.5 mg/kg. The “inhibition of the 5-HT2C receptor” value in assay [3] is “less than 40%”.
`CN(C)CC1CC2c3ccccc3Cc3ccccc3C2O1.Cl` (racemic) [Compound 4, (±)-3,3a,8,12b-tetrahydro-N,N-dimethyl-2H-dibenzo[3,4:6,7]cyclohepta[1,2-b]furan-2-methanamine hydrochloride (1:1)]: the inhibition at 0.1 µM in assay [1] and in assay [3] was > 40% throughout. Further, in assay [2], the ED40 is ≤ 2.5 mg/kg.

A word on the inhibition: it is the drop in the measured response relative to a control, in per cent. High values mean a strong effect, low ones a weak effect.
